In US20230382915A1, “GCN2 AND PERK KINASE INHIBITORS AND METHODS OF USE THEREOF” (Deciphera Pharmaceuticals, LLC, priority 2021, published 2023):

Assays:
CCRF-CEM leukemia cells = assay: CCRF-CEM ASNase cell proliferation assay; assay type: cell-based; settings: Homo sapiens, 1 mU/mL ASNase, 72 h
Procedure: CCRF-CEM leukemia cells (catalog #CCL-116) were obtained from the American Type Culture Collect (ATTC, Manassas, VA). Cells were grown in RPMI-1640 medium supplemented with 10% heat-inactivated fetal bovine serum (Invitrogen, Carlsbad, CA) and 1% Penicillin/Streptomycin/L-Glutamine at 37° C., 5% CO2, and 95% humidity. Cells were expanded until reaching one million cells per mL at which time they are subcultured or harvested for assay use. Ten thousand cells per well in 200 μL RPMI-1640 supplemented with 10% heat-inactivated fetal bovine serum and 1% Penicillin/Streptomycin were dispensed into a 96-well black clear bottom plate. A serial dilution of test compound and 1 mU/mL ASNase was added in triplicate and plates were incubated for 72 h at 37° C., 5% CO2, and 95% humidity. At the end of the incubation, 40 μL of a […] solution of resazurin (Sigma, St. Louis, MO) in PBS was added to each well of the plate and plates were incubated for an additional 6 h at 37° C., 5% CO2, and 95% humidity. Plates were read on a Synergy2 or equivalent reader (Biotek, Winooski VT) using an excitation of 540 nm and an emission of 600 nm. Data was analyzed using GraphPad Prism software (GraphPad, San Diego, CA) to calculate IC50 values.

PERK enzyme = PERK enzyme (Homo sapiens (Human), UniProt Q9NZJ5); assay: Biochemical assay for PERK (coupled pyruvate kinase/lactate dehydrogenase); settings: 1 mM ATP
Procedure: Activity of PERK kinase was determined spectroscopically using a coupled pyruvate kinase/lactate dehydrogenase assay that continuously monitors the ATP hydrolysis-dependent oxidation of NADH (e.g., Schindler et al. Science (2000) 289: 1938-1942). Assays were conducted in 384-well plates ([…] final volume) using 10 nM PERK (from Beryllium), 0.25 mg/mL Myelin Basic Protein substrate, 1.5 units pyruvate kinase, 2.1 units lactate dehydrogenase, 1 mM phosphoenol pyruvate, 0.28 mM NADH and 1 mM ATP in assay buffer (100 mM Tris, pH 7.5, 15 mM MgCl2, 0.5 mM DTT, 0.004% (w/v) BSA, and 0.004% Triton X-100). Inhibition of PERK was measured by adding serial diluted test compound (final assay concentration of 1% DMSO). A decrease in absorption at 340 nm was monitored continuously for 6 hours at 30° C. on a multi-mode microplate reader (BioTek). The reaction rate was calculated using the 2-3 h time frame. The reaction rate at each concentration of compound was converted to percent inhibition using controls (i.e., reaction with no test compound and reaction with a known inhibitor) and IC50 values were calculated using software routines in Prism (GraphPad software).

[1] = test system: ATF4 in thapsigargin stimulated CCRF-CEM cells (PERK); assay: CCRF-CEM thapsigargin (TG) ATF4 ELISA; assay type: cell-based; settings: Homo sapiens, 1 μM thapsigargin
Procedure: CCRF-CEM leukemia cells (catalog #CCL-116) were obtained from the American Type Culture Collection (ATTC, Manassas, VA). Briefly, cells were grown in RPMI-1640 medium supplemented with 10% heat-inactivated fetal bovine serum (Invitrogen, Carlsbad, CA) and 1% Penicillin/Streptomycin/L-Glutamine at 37° C., 5% CO2, and 95% humidity. Cells were expanded until reaching one million cells per mL at which time they were subcultured or harvested for assay use. One million five hundred thousand cells per well in 1 mL complete growth medium were dispensed into 12-well plates and incubated overnight. A serial dilution of test compound was added and cells were incubated at 37° C., 5% CO2, and 95% for three hours, then 1 μM thapsigargin was added and cells were incubated for an additional hour at 37° C., 5% CO2, and 95%. Cells were lysed then ATF4 levels were measured using an ELISA assay (Proteintech, Rosemont, IL). Absorbance was measured at 450 nm and 544 nM using a Synergy2 or equivalent reader (Biotek, Winooski VT). Data was analyzed using PRISM software (Graphpad, San Diego, CA) to calculate IC50 values.

[2] = test system: ATF4 in HCT116 colorectal cancer cells; assay: HCT116 amino acid starved (-AA) ATF4 Western blot; assay type: cell-based; settings: Homo sapiens, HCT-116, 4 h
Procedure: (§1) HCT116 colorectal cancer cells (catalog #CCL-247) were obtained from the American Type Culture Collect (ATTC, Manassas, VA). Briefly, cells were grown in RPMI 1640 supplemented with 10% heat inactivated fetal bovine serum (Invitrogen, Carlsbad, CA) and 1% Penicillin/Streptomycin/L-Glutamine at 37° C., 5% CO2, and 95% humidity. Cells were expanded until reaching 70-95% confluency at which point they were subcultured or harvested for assay use. Cells were seeded in 12-well culture plate at five hundred thousand cells per well in 1 mL complete growth medium and incubated overnight at 37° C., 5% CO2, and 95% humidity. The next day each well was replaced with 1 mL Earle's Balanced Salt Solution (EBSS, Invitrogen, Carlsbad, CA) supplemented with 10% Dialyzed Fetal Bovine Serum, 5.5 mM Glucose, 1% Penicillin/Streptomycin and 1% Vitamin solution (thermo #11120052). A serial dilution of test compound was dispensed into well. Plates were incubated for 4 h at 37° C., 5% CO2, and 95% humidity. […] Western blot was performed on each lysate to quantify phospho-GCN2 (Thr899), total GCN2, ATF4 and beta-Actin. […] Data were analyzed using GraphPad Prism software (GraphPad, San Diego, CA) to calculate IC50 values.

[3] = test system: phospho-GCN2 (Thr899) in HCT116 colorectal cancer cells; assay: HCT116 amino acid starved (-AA) phospho-GCN2 Western blot; assay type: cell-based; settings: Homo sapiens, HCT-116, 4 h, read-out: HCT116 -AA pGCN2 Western Blot
Procedure: as §1

GCN2 kinase = GCN2 kinase (Homo sapiens (Human), UniProt Q9P2K8); assay: Biochemical assay for GCN2 (TR-FRET kinase activity); settings: 1 mM ATP
Procedure: Activity of GCN2 kinase was determined using a TR-FRET kinase activity assay (e.g. Riddle et al. Analytical Biochemistry (2006) 356(1) 108-116). Assays were conducted in 384-well plates (13 μL assay volume) using 2 nM GCN2 (Carna Biosciences), 130 nM GFP-EIf2α (Invitrogen), 0.2 mg/mL E. coli tRNA (sigma) and 1 mM ATP in kinase buffer (Invitrogen). Inhibition of GCN2 was measured by adding serial diluted test compound (final assay concentration of 0.5% DMSO) followed by a 3-hour incubation. Tb-peIF2α (pSer52) antibody (Invitrogen) (2 nM final assay concentration) in kinase buffer containing EDTA (final assay concentration of 20 mM) was added. After a 60 min incubation at room temperature, TR-FRET was monitored using an excitation wavelength of 340 nm and emission wavelengths of 490 nm and 520 nm. The emission ratio (520/490) at each compound concentration of was converted to percent inhibition using controls (i.e., reaction with no test compound and reaction with a known inhibitor) and IC50 values were calculated by fitting a four-parameter sigmoidal curve to the data using Prism (GraphPad software).

[4] = test system: ATF4 in H929 multiple myeloma cells; assay: H929 ATF4 ELISA assay; assay type: cell-based; settings: four hours, relative to vehicle treated control
Procedure: H929 multiple myeloma cells (catalog #CRL-9068) were obtained from the American Type Culture Collection (ATTC, Manassas, VA). Briefly, cells were grown in RPMI-1640 medium supplemented with 20% heat-inactivated fetal bovine serum (catalog #A3840002, ThermoFisher Scientific, Waltham, MA), 1% Penicillin/Streptomycin/L-Glutamine (catalog #10378016, ThermoFisher Scientific, Waltham, MA), and 0.05 mM 2-mercaptoethanol (catalog #21985-023, ThermoFisher Scientific, Waltham, MA) at 37° C., 5% CO2, and 95% humidity. Cells were expanded until reaching one million five hundred thousand cells per mL at which time they were sub-cultured or harvested for assay use. One million five hundred thousand cells per well in 1 mL complete growth medium were dispensed into 12-well plates and incubated overnight. A serial dilution of test compound was added, and cells were incubated at 37° C., 5% CO2, and 95% for four hours. Cells were lysed then ATF4 levels were measured using an ELISA assay (Proteintech, Rosemont, IL). Absorbance is measured at 450 nm and 544 nM using a Synergy2 or equivalent reader (Biotek, Winooski VT). Data were analyzed using PRISM software (Graphpad, San Diego, CA) to calculate fold stimulation of cellular ATF4 relative to vehicle treated control.

Sequence of GCN2 kinase (Q9P2K8 whole entry): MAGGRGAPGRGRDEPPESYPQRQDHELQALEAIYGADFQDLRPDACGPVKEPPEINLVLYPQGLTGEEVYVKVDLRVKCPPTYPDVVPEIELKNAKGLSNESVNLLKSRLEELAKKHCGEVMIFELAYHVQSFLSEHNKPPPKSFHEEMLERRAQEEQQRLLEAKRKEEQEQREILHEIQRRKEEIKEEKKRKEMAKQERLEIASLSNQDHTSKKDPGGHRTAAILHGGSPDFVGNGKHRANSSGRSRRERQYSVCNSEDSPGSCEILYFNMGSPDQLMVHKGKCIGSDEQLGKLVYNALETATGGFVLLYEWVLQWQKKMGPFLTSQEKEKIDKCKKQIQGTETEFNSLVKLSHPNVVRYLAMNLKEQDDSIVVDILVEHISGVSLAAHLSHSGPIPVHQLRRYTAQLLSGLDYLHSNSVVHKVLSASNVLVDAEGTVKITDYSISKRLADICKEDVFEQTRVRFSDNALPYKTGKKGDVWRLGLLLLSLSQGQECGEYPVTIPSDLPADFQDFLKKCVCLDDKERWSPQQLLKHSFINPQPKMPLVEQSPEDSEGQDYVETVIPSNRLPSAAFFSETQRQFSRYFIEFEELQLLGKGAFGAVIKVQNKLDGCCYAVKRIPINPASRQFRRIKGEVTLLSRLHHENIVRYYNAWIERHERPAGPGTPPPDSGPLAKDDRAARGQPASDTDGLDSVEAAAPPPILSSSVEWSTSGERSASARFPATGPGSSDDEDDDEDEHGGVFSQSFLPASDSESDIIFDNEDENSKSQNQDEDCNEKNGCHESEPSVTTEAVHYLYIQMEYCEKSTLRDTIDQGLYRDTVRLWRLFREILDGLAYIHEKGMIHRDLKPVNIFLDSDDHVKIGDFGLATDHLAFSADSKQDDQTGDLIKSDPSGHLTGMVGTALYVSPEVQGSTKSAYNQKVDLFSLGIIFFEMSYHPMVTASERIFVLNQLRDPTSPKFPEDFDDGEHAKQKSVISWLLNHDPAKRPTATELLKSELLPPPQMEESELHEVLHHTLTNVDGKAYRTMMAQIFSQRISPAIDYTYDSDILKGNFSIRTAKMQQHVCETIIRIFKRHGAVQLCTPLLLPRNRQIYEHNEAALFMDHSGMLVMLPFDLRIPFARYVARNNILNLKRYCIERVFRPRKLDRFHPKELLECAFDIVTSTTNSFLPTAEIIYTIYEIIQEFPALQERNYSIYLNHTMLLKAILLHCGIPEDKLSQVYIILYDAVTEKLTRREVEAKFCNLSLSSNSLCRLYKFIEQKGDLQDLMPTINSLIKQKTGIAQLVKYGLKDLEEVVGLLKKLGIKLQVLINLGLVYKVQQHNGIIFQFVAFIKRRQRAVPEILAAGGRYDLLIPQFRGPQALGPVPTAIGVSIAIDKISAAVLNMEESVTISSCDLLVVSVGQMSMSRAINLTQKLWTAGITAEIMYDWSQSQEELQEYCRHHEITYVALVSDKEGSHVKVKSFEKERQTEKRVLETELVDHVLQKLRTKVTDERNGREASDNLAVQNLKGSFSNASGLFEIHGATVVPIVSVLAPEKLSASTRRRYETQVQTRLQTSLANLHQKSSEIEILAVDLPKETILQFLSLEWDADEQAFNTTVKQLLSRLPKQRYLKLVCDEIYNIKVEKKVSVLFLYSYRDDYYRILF
Sequence of PERK enzyme (Q9NZJ5 other isoform, or with tags, fused parts or gaps): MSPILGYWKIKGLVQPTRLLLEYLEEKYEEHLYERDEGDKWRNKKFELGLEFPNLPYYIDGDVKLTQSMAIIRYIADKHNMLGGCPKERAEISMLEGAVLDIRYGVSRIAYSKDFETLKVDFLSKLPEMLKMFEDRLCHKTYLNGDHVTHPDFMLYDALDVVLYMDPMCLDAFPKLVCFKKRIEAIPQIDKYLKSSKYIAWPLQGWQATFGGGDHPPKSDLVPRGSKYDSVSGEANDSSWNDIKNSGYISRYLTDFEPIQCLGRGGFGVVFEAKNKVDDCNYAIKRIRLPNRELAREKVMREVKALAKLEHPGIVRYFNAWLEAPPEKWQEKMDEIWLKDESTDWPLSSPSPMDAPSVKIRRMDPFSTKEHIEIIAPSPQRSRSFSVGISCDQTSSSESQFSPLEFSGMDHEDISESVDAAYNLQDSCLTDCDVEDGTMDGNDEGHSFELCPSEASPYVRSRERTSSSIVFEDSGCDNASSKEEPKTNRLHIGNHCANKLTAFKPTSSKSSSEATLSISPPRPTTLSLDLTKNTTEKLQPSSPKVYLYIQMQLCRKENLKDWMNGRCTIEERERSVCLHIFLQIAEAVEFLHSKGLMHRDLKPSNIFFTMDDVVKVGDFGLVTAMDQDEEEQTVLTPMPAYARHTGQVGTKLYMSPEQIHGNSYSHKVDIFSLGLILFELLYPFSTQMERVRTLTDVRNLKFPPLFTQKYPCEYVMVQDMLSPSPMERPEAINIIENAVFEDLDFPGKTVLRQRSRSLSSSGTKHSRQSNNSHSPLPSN

Structure (SMILES) | IC50 (CCRF-CEM leukemia cells) | IC50 (PERK enzyme) | IC50 [1] | IC50 [2] | IC50 [3] | IC50 (GCN2 kinase) | H929 NS ATF4 ELISA (ATF4 stim) [4]
CC(C)n1cc(-c2cccc(NS(=O)(=O)c3cc(Cl)cc(CO)c3Cl)c2F)c2c(N)ncnc21 [Example 3] | ≤ 0.1 µM | ≤ 0.1 µM | ≤ 0.1 µM | ≤ 0.1 µM | ≤ 0.1 µM | ≤ 0.1 µM | 
Cn1cc(-c2cc(F)cc(NS(=O)(=O)c3cc(Cl)cc(CO)c3Cl)c2F)c2c(N)ncnc21 [Example 14] | 0.1 to 0.5 µM | ≤ 0.1 µM | 0.1 to 0.5 µM |  |  | ≤ 0.1 µM | ++ (an ATF4 stim greater than 5-fold and less than or equal to 10 fold)
Cn1nc(-c2cccc(NS(=O)(=O)c3cc(Cl)cc(CO)c3Cl)c2F)c2c(N)ncnc21 [Example 21] | 0.1 to 0.5 µM | ≤ 0.1 µM | 0.1 to 0.5 µM |  |  | ≤ 0.1 µM | ++ (an ATF4 stim greater than 5-fold and less than or equal to 10 fold)
COc1c(CO)cc(Cl)cc1S(=O)(=O)Nc1cccc(-c2cn(C)c3ncnc(N)c23)c1F [Example 24] | 1 to 10 µM | ≤ 0.1 µM | 0.1 to 0.5 µM |  |  | 1 to 10 µM | ++ (an ATF4 stim greater than 5-fold and less than or equal to 10 fold)
Cc1cc(CO)c(Cl)c(S(=O)(=O)Nc2cccc(-c3cn(C)c4ncnc(N)c34)c2F)c1 [Example 25] | 0.1 to 0.5 µM | ≤ 0.1 µM | ≤ 0.1 µM |  |  | 0.1 to 0.5 µM | +++ (an ATF4 stim greater than 10 fold and less than or equal to 20 fold)
Cc1c(CO)cc(Cl)cc1S(=O)(=O)Nc1cccc(-c2cn(C)c3ncnc(N)c23)c1F [Example 26] | 0.1 to 0.5 µM | ≤ 0.1 µM | ≤ 0.1 µM |  |  | ≤ 0.1 µM | +++ (an ATF4 stim greater than 10 fold and less than or equal to 20 fold)
